Laboratory results taken from US20250388604A1, “Compounds and Their Use as PDE4 Activators” (Mironid Limited, priority 2022, published 2025).

The compounds below were run on m-IMCD3 cells (assay: Inhibition of PGE2-stimulated in vitro cyst formation in m-IMCD3 cells). Conditions: Mus musculus, mIMCD3, 144 h, 3 μM; mean cyst area, 100% for (DMSO + PGE2) and 0% for DMSO control; 6 days of culture; read-out: % Cyst area after incubation with 3 μM test compound.
Assay type: cell-based, mouse
Summary of the method: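 m-IMCD3 cells embedded in collagen I/Matrigel 3D culture; 18–24 h after plating, compound (0.1% DMSO final) plus PGE2 (100 nM final) added, replenished after 2 or 3 days. After 6 days, z-stack imaging gave mean cyst area, normalized to DMSO+PGE2 (100%) and DMSO (0%).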

Row | SMILES | activity at 3 µM [%]
1 | O=C(c1cccc2c1OC(F)(F)O2)N1CCc2nc(N3C4CCC3CNC4)sc2C1 [Example 233, (2-(3,8-diazabicyclo[3.2.1]octan-8-yl)-6,7-dihydrothiazolo[5,4-c]pyridin-5(4H)-yl)(2,2-difluorobenzo[d][1,3]dioxol-4-yl)methanone] | -2
2 | O=C(c1cccc2c1OCO2)N1CCc2nc(N3C4CCC3CNC4)sc2C1 [Example 234, (2-(3,8-diazabicyclo[3.2.1]octan-8-yl)-6,7-dihydrothiazolo[5,4-c]pyridin-5(4H)-yl)(benzo[d][1,3]dioxol-4-yl)methanone] | 1
3 | O=C(c1cccc(F)c1)N1CCc2nc(N3C4CCC3CNC4)sc2C1 [Example 235, (2-(3,8-diazabicyclo[3.2.1]octan-8-yl)-6,7-dihydrothiazolo[5,4-c]pyridin-5(4H)-yl)(3-fluorophenyl)methanone] | -3
4 | O=C(c1cccc2c1CCO2)N1CCc2nc(N3C4CCC3CNC4)sc2C1 [Example 236, (2-(3,8-diazabicyclo[3.2.1]octan-8-yl)-6,7-dihydrothiazolo[5,4-c]pyridin-5(4H)-yl)(2,3-dihydrobenzofuran-4-yl)methanone] | 27
5 | O=C(c1cccc2cccnc12)N1CCc2nc(N3C4CCC3CNC4)sc2C1 [Example 237, (2-(3,8-diazabicyclo[3.2.1]octan-8-yl)-6,7-dihydrothiazolo[5,4-c]pyridin-5(4H)-yl)(quinolin-8-yl)methanone] | 37
6 | Cc1ccc(C(=O)N2CCc3nc(N4C5CCC4CNC5)sc3C2)c(C#N)c1 [Example 238, 2-(2-(3,8-diazabicyclo[3.2.1]octan-8-yl)-4,5,6,7-tetrahydrothiazolo[5,4-c]pyridine-5-carbonyl)-5-methylbenzonitrile] | 5
7 | N#Cc1ccc(C(=O)N2CCc3nc(N4C5CCC4CNC5)sc3C2)cc1 [Example 239, 4-(2-(3,8-diazabicyclo[3.2.1]octan-8-yl)-4,5,6,7-tetrahydrothiazolo[5,4-c]pyridine-5-carbonyl)benzonitrile] | -2
8 | COc1nc(F)ccc1C(=O)N1CCc2nc(N3C4CCC3CNC4)sc2C1 [Example 240, (2-(3,8-diazabicyclo[3.2.1]octan-8-yl)-6,7-dihydrothiazolo[5,4-c]pyridin-5(4H)-yl)(6-fluoro-2-methoxypyridin-3-yl)methanone] | -3
9 | Cc1cc(F)ncc1C(=O)N1CCc2nc(N3C4CCC3CNC4)sc2C1 [Example 242, (2-(3,8-diazabicyclo[3.2.1]octan-8-yl)-6,7-dihydrothiazolo[5,4-c]pyridin-5(4H)-yl)(6-fluoro-4-methylpyridin-3-yl)methanone] | 29
10 | O=C(c1ccc(C(F)F)nc1)N1CCc2nc(N3C4CCC3CNC4)sc2C1 [Example 243, (2-(3,8-diazabicyclo[3.2.1]octan-8-yl)-6,7-dihydrothiazolo[5,4-c]pyridin-5(4H)-yl)(6-(difluoromethyl)pyridin-3-yl)methanone] | 10
11 | O=C(Oc1ccccc1)N1CCc2nc(N3C4CCC3CNC4)sc2C1 [Example 247, phenyl 2-(3,8-diazabicyclo[3.2.1]octan-8-yl)-6,7-dihydrothiazolo[5,4-c]pyridine-5(4H)-carboxylate] | 18
12 | COC(C(=O)N1CCc2nc(N3C4CCC3CNC4)sc2C1)C1(C)CCCC1 (stereo not shown) [Example 249, 1-(2-(3,8-diazabicyclo[3.2.1]octan-8-yl)-6,7-dihydrothiazolo[5,4-c]pyridin-5(4H)-yl)-2-methoxy-2-(1-methylcyclopentyl)ethan-1-one] | -5
13 | O=C(COc1ccccc1OCCO)N1CCc2nc(N3C4CCC3CNC4)sc2C1 [Example 250, 1-(2-(3,8-diazabicyclo[3.2.1]octan-8-yl)-6,7-dihydrothiazolo[5,4-c]pyridin-5(4H)-yl)-2-(2-(2-hydroxyethoxy)phenoxy)ethan-1-one] | 17
